In one assay the target is T1, PIK3CA (Homo sapiens, UniProt P42336).
T1 construct: endogenous in cells; host or cells: Jurkat cell lysate
Put plainly: In vitro ELISA target engagement assay for PIK3CA in Jurkat cellular lysate (competition with PIK3CA Biotin Probe). It is filed as binding. To be noted: 1 hour at rt, then 500 nM PIK3CA Biotin Probe, read-out: Elisa Target Engagement Assay (TE50). In short, it runs like this:
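Jurkat lysate from sonicated frozen cells was preincubated 1 h at rt with serially diluted compound up to 200 μM, then labelled 1 h at rt with PIK3CA biotin probe at 500 nM final. Probe-bound PIK3CA was captured on antibody-coated plates and detected with Neutravidin-HRP luminescence; TE50 derived from the dose response.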
On the technique in general: An ELISA detects its analyte on a solid surface through an enzyme-linked reagent.

For the next assay, the target named is T2, PIK3CA_C242 (Homo sapiens, UniProt P42336).
T2 construct: endogenous in cells; host or cells: Jurkat cell lysate
Nature of the assay: Proteomic TE50 (IA-DTB / TMT mass spectrometry) in Jurkat cell lysate. Format: binding. To be noted: 1 hour at rt, 7-point dose response. Summed up: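 Jurkat lysate (500 μg) treated with compound (7-point, 1:5 dilutions) for 1 h at rt, then labelled with 200 μM IA-DTB for 1 h. After digestion and streptavidin enrichment, the C242 peptide was quantified by targeted MS3 TMT. TE50 was derived from reporter-ion S/N dose-response curves.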

T1 sequence (P42336 whole entry): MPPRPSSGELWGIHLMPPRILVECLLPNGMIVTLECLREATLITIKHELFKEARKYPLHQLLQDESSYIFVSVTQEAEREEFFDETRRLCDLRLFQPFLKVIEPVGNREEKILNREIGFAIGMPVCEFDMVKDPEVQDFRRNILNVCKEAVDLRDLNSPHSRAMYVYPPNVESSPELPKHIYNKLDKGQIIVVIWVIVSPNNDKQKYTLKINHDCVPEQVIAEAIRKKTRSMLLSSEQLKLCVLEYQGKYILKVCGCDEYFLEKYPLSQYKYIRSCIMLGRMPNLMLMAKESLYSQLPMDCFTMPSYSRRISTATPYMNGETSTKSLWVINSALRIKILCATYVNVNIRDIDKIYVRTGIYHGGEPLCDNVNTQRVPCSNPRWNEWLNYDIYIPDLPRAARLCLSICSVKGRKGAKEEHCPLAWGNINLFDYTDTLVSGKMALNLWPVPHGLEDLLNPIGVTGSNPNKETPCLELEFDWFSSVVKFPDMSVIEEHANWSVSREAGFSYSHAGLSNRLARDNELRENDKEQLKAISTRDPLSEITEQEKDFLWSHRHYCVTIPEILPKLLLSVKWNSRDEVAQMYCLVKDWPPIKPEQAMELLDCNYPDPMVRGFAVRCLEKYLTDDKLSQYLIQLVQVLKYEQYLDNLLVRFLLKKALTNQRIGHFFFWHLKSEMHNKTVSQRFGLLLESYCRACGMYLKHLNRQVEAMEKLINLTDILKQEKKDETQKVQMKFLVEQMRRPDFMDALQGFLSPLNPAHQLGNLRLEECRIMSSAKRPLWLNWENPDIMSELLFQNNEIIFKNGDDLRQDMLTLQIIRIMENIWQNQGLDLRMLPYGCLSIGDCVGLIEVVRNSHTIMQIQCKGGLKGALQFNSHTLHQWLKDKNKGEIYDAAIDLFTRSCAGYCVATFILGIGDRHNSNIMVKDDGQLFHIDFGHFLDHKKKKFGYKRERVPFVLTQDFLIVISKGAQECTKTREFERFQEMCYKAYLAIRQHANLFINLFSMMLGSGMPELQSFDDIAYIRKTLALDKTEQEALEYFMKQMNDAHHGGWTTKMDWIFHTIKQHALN
T1 sequence (P27986 whole entry partner): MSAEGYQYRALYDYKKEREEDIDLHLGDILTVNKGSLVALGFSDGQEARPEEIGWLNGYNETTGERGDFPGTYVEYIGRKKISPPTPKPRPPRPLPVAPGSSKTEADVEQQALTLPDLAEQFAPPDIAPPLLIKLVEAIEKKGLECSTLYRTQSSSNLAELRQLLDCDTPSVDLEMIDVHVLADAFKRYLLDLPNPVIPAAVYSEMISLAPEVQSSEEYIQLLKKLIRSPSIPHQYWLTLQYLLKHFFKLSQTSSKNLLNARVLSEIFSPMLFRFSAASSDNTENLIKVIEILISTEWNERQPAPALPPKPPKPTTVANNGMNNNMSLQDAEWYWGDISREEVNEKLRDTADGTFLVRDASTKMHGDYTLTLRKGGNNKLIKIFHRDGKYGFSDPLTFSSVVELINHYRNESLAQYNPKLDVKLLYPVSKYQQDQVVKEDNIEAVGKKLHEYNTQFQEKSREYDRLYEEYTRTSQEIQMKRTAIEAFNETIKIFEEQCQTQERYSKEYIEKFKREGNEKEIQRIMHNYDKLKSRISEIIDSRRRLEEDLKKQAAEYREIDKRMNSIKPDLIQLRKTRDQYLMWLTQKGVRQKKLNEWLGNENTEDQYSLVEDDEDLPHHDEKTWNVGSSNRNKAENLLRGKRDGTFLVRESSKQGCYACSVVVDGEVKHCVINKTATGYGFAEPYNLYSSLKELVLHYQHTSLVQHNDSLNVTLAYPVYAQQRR
T2 sequence (P42336 whole entry): as the sequence (P42336 whole entry) above
T2 sequence (P27986 whole entry partner): as the sequence (P27986 whole entry partner) above

For the compound `COc1ccc(S(=O)(=O)N2CCC(F)(C(=O)N[C@H](C)/C=C\S(C)(=O)=O)CC2)c(-c2cccc(Cl)c2)c1` [Compound 22, (R,Z)-1-((3′-chloro-5-methoxy-[1,1′-biphenyl]-2-yl)sulfonyl)-4-fluoro-N-(4-(methylsulfonyl)but-3-en-2-yl)piperidine-4-carboxamide], the IC50 is 770 nM at PIK3CA and 785 nM against PIK3CA_C242.
The like results for `C[C@@H](/C=C\S(C)(=O)=O)NC(=O)C1(F)CCN(S(=O)(=O)c2ccc(Cl)cc2-c2ccccc2Cl)CC1` [Compound 6, (S,Z)-1-((2′,5-dichloro-[1,1′-biphenyl]-2-yl)sulfonyl)-4-fluoro-N-(4-(methylsulfonyl)but-3-en-2-yl)piperidine-4-carboxamide] were, in that order, 50 nM and 26 nM.
On the same counts, the results for `C[C@H](/C=C\S(C)(=O)=O)NC(=O)C1(F)CCN(S(=O)(=O)c2ccc(N3CCCC3)cc2-c2ccc(F)cc2Cl)CC1` [Compound 123, (R,Z)-1-((2′-chloro-4′-fluoro-5-(pyrrolidin-1-yl)-[1,1′-biphenyl]-2-yl)sulfonyl)-4-fluoro-N-(4-(methylsulfonyl)but-3-en-2-yl)piperidine-4-carboxamide] are 820 nM and 63 nM.
In the case of `CCOc1cccc(-c2cc(Cl)ccc2S(=O)(=O)N2CCC(F)(C(=O)N[C@@H](C)/C=C\S(C)(=O)=O)CC2)c1` [Compound 10, (S,Z)-1-((5-chloro-3′-ethoxy-[1,1′-biphenyl]-2-yl)sulfonyl)-4-fluoro-N-(4-(methylsulfonyl)but-3-en-2-yl)piperidine-4-carboxamide], the IC50 on PIK3CA was 320 nM; at PIK3CA_C242 it was 275 nM.
The like results for `Cc1ccccc1-c1cc(N2CCC2)ccc1S(=O)(=O)N1CCC(F)(C(=O)N[C@H](C)/C=C\S(C)(=O)=O)CC1` [Compound 116, (R,Z)-1-((5-(azetidin-1-yl)-2′-methyl-[1,1′-biphenyl]-2-yl)sulfonyl)-4-fluoro-N-(4-(methylsulfonyl)but-3-en-2-yl)piperidine-4-carboxamide] were, in that order, 340 nM and 261 nM.
The like results for `COc1ccc(S(=O)(=O)N2CCC(F)(C(=O)N[C@H](C)/C=C\S(C)(=O)=O)CC2)c(-c2cccc(F)c2Cl)c1` [Compound 26, (R,Z)-1-((2′-chloro-3′-fluoro-5-methoxy-[1,1′-biphenyl]-2-yl)sulfonyl)-4-fluoro-N-(4-(methylsulfonyl)but-3-en-2-yl)piperidine-4-carboxamide] were, in that order, 384 nM and 371 nM.
The like results for `C[C@H](/C=C/C(=O)N1CC(F)(F)C1)NC(=O)C1(F)CCN(S(=O)(=O)c2ccc(Br)cc2-c2ccccc2Cl)CC1` [Compound 135, (R,E)-1-((5-bromo-2′-chloro-[1,1′-biphenyl]-2-yl)sulfonyl)-N-(5-(3,3-difluoroazetidin-1-yl)-5-oxopent-3-en-2-yl)-4-fluoropiperidine-4-carboxamide] were, in that order, 87.2 nM and 120 nM.
In the case of `C[C@@H](/C=C\S(C)(=O)=O)NC(=O)C1(F)CCN(S(=O)(=O)c2ccc(Cl)cc2-c2cccc(OCc3ccccn3)c2)CC1` [Compound 269, (S,Z)-1-((5-chloro-3′-(pyridin-2-ylmethoxy)-[1,1′-biphenyl]-2-yl)sulfonyl)-4-fluoro-N-(4-(methylsulfonyl)but-3-en-2-yl)piperidine-4-carboxamide], the IC50 at PIK3CA is 90 nM; against PIK3CA_C242, 63 nM.
On the same counts, the results for `C[C@H](/C=C\S(C)(=O)=O)NC(=O)C1(F)CCN(S(=O)(=O)c2cc(=O)n(C)cc2-c2ccccc2Cl)CC1` [Compound 275, (R,Z)-1-((5-(2-chlorophenyl)-1-methyl-2-oxo-1,2-dihydropyridin-4-yl)sulfonyl)-4-fluoro-N-(4-(methylsulfonyl)but-3-en-2-yl)piperidine-4-carboxamide] are 1300 nM and 910 nM.
The like results for `COc1ccc(S(=O)(=O)N2CCC(F)(C(=O)N[C@H](C)/C=C\S(C)(=O)=O)CC2)c(-c2ccc(F)cc2Cl)c1` [Compound 27, (R,Z)-1-((2′-chloro-4′-fluoro-5-methoxy-[1,1′-biphenyl]-2-yl)sulfonyl)-4-fluoro-N-(4-(methylsulfonyl)but-3-en-2-yl)piperidine-4-carboxamide] were, in that order, 450 nM and 430 nM.
On the same counts, the results for `C[C@H](/C=C\S(C)(=O)=O)NC(=O)C1(F)CCN(S(=O)(=O)c2ccc(Br)cc2-c2ncccc2Cl)CC1` [Compound 204, (R,Z)-1-((4-bromo-2-(3-chloropyridin-2-yl)phenyl)sulfonyl)-4-fluoro-N-(4-(methylsulfonyl)but-3-en-2-yl)piperidine-4-carboxamide] are 340 nM and 730 nM.
Regarding `C[C@H](/C=C\S(C)(=O)=O)NC(=O)C1(F)CCN(S(=O)(=O)c2cnc(Cl)cc2-c2ccccc2Cl)CC1` [Compound 231, (R,Z)-1-((6-chloro-4-(2-chlorophenyl)pyridin-3-yl)sulfonyl)-4-fluoro-N-(4-(methylsulfonyl)but-3-en-2-yl)piperidine-4-carboxamide], the IC50 on PIK3CA worked out at 130 nM; against PIK3CA_C242, 114 nM.
On the same counts, the results for `COc1cccc(-c2cc(Cl)ccc2S(=O)(=O)N2CCC(C)(C(=O)N[C@@H](C)/C=C\S(C)(=O)=O)CC2)c1` [Compound 201, (S,Z)-1-((5-chloro-3′-methoxy-[1,1′-biphenyl]-2-yl)sulfonyl)-4-methyl-N-(4-(methylsulfonyl)but-3-en-2-yl)piperidine-4-carboxamide] are 350 nM and 310 nM.
As to `C[C@H](/C=C\S(C)(=O)=O)NC(=O)C1(F)CCN(S(=O)(=O)c2ccc(N3CCCC3)cc2-c2ccccc2)CC1` [Compound 117, (R,Z)-4-fluoro-N-(4-(methylsulfonyl)but-3-en-2-yl)-1-((5-(pyrrolidin-1-yl)-[1,1′-biphenyl]-2-yl)sulfonyl)piperidine-4-carboxamide], the results for the IC50 at PIK3CA and at PIK3CA_C242 were 830 nM and 810 nM, respectively.
The like results for `Cc1ccccc1-c1cc(C(C)C)ccc1S(=O)(=O)N1CCC(F)(C(=O)N[C@H](C)/C=C\S(C)(=O)=O)CC1` [Compound 115, (R,Z)-4-fluoro-1-((5-isopropyl-2′-methyl-[1,1′-biphenyl]-2-yl)sulfonyl)-N-(4-(methylsulfonyl)but-3-en-2-yl)piperidine-4-carboxamide] were, in that order, 520 nM and 410 nM.
As to `COc1ccc(S(=O)(=O)N2CCC(F)(C(=O)N[C@H](C)/C=C\S(C)(=O)=O)CC2)c(-c2c(F)cccc2Cl)c1` [Compound 30, 1-((2′-chloro-6′-fluoro-5-methoxy-[1,1′-biphenyl]-2-yl)sulfonyl)-4-fluoro-N-((R,Z)-4-(methylsulfonyl)but-3-en-2-yl)piperidine-4-carboxamide], the values for the IC50 at PIK3CA and at PIK3CA_C242 were 560 nM and 340 nM, respectively.
On the same counts, the results for `COc1ccc(S(=O)(=O)N2CCC(F)(C(=O)N[C@H](C)/C=C/C#N)CC2)c(-c2ccccc2Cl)c1` [Compound 229, (R,E)-1-((2′-chloro-5-methoxy-[1,1′-biphenyl]-2-yl)sulfonyl)-N-(4-cyanobut-3-en-2-yl)-4-fluoropiperidine-4-carboxamide] are 1100 nM and 970 nM.

The values are drawn from patent US20250026721A1, “COMPOUNDS AND METHODS FOR MODULATING RAS-PI3K” (Vividion Therapeutics, Inc., priority 2023, published 2025).
